Data on 38 compounds can be found in patent US11814376B2, “Hepatitis b core protein modulators” (Assembly Biosciences, Inc., priority 2015, dated 2023).

Counter-ions that a name gives are not always drawn.

The test system of series [1] is AD38 cells. Put plainly: Viability of AD38 cells (Promega CellTiter-Glo). As to conditions: 10 μM compound, 6 days, CellTiter-Glo luminescence normalized to DMSO control (100%). The format is cell-based. The gist of the method: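 After 6 days of compound exposure at 37° C (compound added as 10× solution in 10% DMSO; 50,000 cells/well, collagen-coated), medium was replaced with tetracycline-free DMEM/F12, 2% FBS, 1% DMSO. CellTiter-Glo luminescence was then recorded and normalized to DMSO-treated wells as 100% viability.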

The test system of series [2] is HBV viral load in AD38 cells. Put plainly: Viral load production in AD38 cells, quantitative PCR of the core sequence in supernatant. As to conditions: Hepatitis B virus, 144 h, 10 μM compound, 6 days at 37° C., supernatant qPCR, relative to DMSO control; read-out: AD38 Viral Load (%) (VL with cmpd/VL in DMSO control) at 10 μM. The format is cell-based. For orientation: Quantitative PCR measures a nucleic acid by following its amplification.

For `O=C(NCc1cnc(-c2cc(O)ccn2)s1)c1ccc2c(c1)NC(=O)c1ccccc1S2(=O)=O` [compound 1880, N-((2-(4-hydroxypyridin-2-yl)thiazol-5-yl)methyl)-11-oxo-10, 11-dihydrodibenzo [b, f] [1, 4] thiazepine-8-carboxamide 5,5-dioxide], the “AD38 Viability Normalized Result (cmpd/DMSO %) at 10 μM” value in series [1] amounted to 104%. Also, the activity at 10 µM in series [2] turned out to be 6.7%.
Taken in the same sequence, the figures for `N#Cc1ccc(-c2ncc(CNC(=O)c3ccc4c(c3)NC(=O)c3ccccc3S4(=O)=O)s2)nc1` [compound 1881] were 108% and 0.8%.
For `O=C(NCc1cnc(-c2nccs2)s1)c1ccc2c(c1)NC(=O)c1ccccc1S2(=O)=O` [compound 1882] the same measures were 103% and 1%.
For `Nc1ccc(-c2ncc(CNC(=O)c3ccc4c(c3)NC(=O)c3ccccc3S4(=O)=O)s2)nc1` [compound 1886, N-((2-(5-aminopyridin-2-yl)thiazol-5-yl)methyl)-11-oxo-10, 11-dihydrodibenzo [b, f] [1, 4] thiazepine-8-carboxamide 5,5-dioxide] the same measures were 106% and 1.5%.
In the case of `Nc1ccnc(-c2ncc(CNC(=O)c3ccc4c(c3)NC(=O)c3ccccc3S4(=O)=O)s2)c1` [compound 1888, N-((2-(4-aminopyridin-2-yl)thiazol-5-yl)methyl)-11-oxo-10,11-dihydrodibenzo [b, f] [1, 4] thiazepine-8-carboxamide 5,5-dioxide, TFA salt], in series [1], the “AD38 Viability Normalized Result (cmpd/DMSO %) at 10 μM” value is listed as 100%. Also, the activity at 10 µM in series [2] was 1.2%.
Taken in the same sequence, the figures for `CN(C)c1ccnc(-c2ncc(CNC(=O)c3ccc4c(c3)NC(=O)c3ccccc3S4(=O)=O)s2)c1` [compound 1889, N-((2-(4-(dimethylamino)pyridin-2-yl)thiazol-5-yl)methyl)-11-oxo-10,11-dihydrodibenzo [b, f] [1, 4] thiazepine-8-carboxamide 5,5-dioxide] were 98% and 4.6%.
In the case of `O=C(NCc1cnc(-c2nccs2)s1)c1ccc2c(c1)NC(=O)c1ccccc1O2` [compound 1893], the “AD38 Viability Normalized Result (cmpd/DMSO %) at 10 μM” value in series [1] is recorded as 91%. Besides, the activity at 10 µM in series [2] was found to be 2%.
For `N#Cc1ccc(-c2ncc(CNC(=O)c3ccc4c(c3)NC(=O)c3cccc(F)c3S4(=O)=O)s2)cc1` [compound 1904] the same measures were 89% and 0.5%.
For `O=C(NCc1cnc(N2CCCCC2)s1)c1ccc2c(c1)NC(=O)c1ccccc1S2(=O)=O` [compound 1905] the same measures were 109% and 0.3%.
Taken in the same sequence, the figures for `O=C1CCN(c2ncc(CNC(=O)c3ccc4c(c3)NC(=O)c3ccccc3S4(=O)=O)s2)CC1` [compound 1906] were 89% and 7.8%.
Take `O=C(NCc1cnc(N2CCCCCC2)s1)c1ccc2c(c1)NC(=O)c1ccccc1S2(=O)=O` [compound 1907]: the “AD38 Viability Normalized Result (cmpd/DMSO %) at 10 μM” value in series [1] came to 85%. In addition, the activity at 10 µM in series [2] was 0.5%.
For `O=C(NCc1cnc(N2CCCCC(O)C2)s1)c1ccc2c(c1)NC(=O)c1ccccc1S2(=O)=O` (stereo not shown) [compound 1908] the same measures were 94% and 7%.
Taken in the same sequence, the figures for `O=C1CCCCN(c2ncc(CNC(=O)c3ccc4c(c3)NC(=O)c3ccccc3S4(=O)=O)s2)C1` [compound 1909, 11-oxo-N-((2-(3-oxoazepan-1-yl)thiazol-5-yl)methyl)-10, 11-dihydrodibenzo [b, f] [1, 4] thiazepine-8-carboxamide 5,5-dioxide] were 95% and 1.3%.
For `Cc1cc2c(cc1C(=O)NCc1cnc(C(F)(F)F)s1)NC(=O)c1ccccc1S2(=O)=O` [compound 1910] the same measures were 94% and 19%.
With `Cc1cc2c(cc1C(=O)NCc1cnc(-c3ccc(C#N)cc3)s1)NC(=O)c1ccccc1S2(=O)=O` [compound 1911], in series [1], the “AD38 Viability Normalized Result (cmpd/DMSO %) at 10 μM” value was determined as 111%. Besides, the activity at 10 µM in series [2] came out at 0.4%.
Take `N#Cc1ccc(-c2ncc(CNC(=O)c3cc4c(cc3Cl)Oc3ccccc3C(=O)N4)s2)cc1` [compound 1913]: in series [1], the “AD38 Viability Normalized Result (cmpd/DMSO %) at 10 μM” value is given as 111%. In series [2], the activity at 10 µM was found to be 68.1%.
For `Cc1c(C(=O)NCc2cnc(C(F)(F)F)s2)cc(Br)c2c1NC(=O)c1ccccc1S2` [compound 1914] the same measures were 77% and 120%.
For `Cc1c(C(=O)NCc2cnc(-c3ccc(C#N)cc3)s2)cc(Br)c2c1NC(=O)c1ccccc1S2` [compound 1915] the same measures were 100% and 15.7%.
Taken in the same sequence, the figures for `CCCN1c2ccc(C(=O)NCc3cnc(C(F)(F)F)s3)cc2NC(=O)c2ccccc21` [compound 1916] were 103% and 15.5%.
For `CCCN1c2ccc(C(=O)NCc3cnc(-c4ccc(C#N)cc4)s3)cc2NC(=O)c2ccccc21` [compound 1917], the “AD38 Viability Normalized Result (cmpd/DMSO %) at 10 μM” value in series [1] is on record as 108%. Further, the activity at 10 µM in series [2] was found to be 1.1%.
Taken in the same sequence, the figures for `C=CCN1c2ccc(C(=O)NCc3cnc(C(F)(F)F)s3)cc2NC(=O)c2ccccc21` [compound 1920] were 85% and 48.8%.
Taken in the same sequence, the figures for `C=CCN1c2ccc(C(=O)NCc3cnc(-c4ccc(C#N)cc4)s3)cc2NC(=O)c2ccccc21` [compound 1921] were 101% and 1.2%.
For `CCCCN1c2ccc(C(=O)NCc3cnc(C(F)(F)F)s3)cc2NC(=O)c2ccccc21` [compound 1922] the same measures were 39% and 60.3%.
Consider `O=C(NCc1cnc(CN2CCOCC2)s1)c1ccc2c(c1)NC(=O)c1ccccc1S2(=O)=O` [compound 1927], for which, in series [1], the “AD38 Viability Normalized Result (cmpd/DMSO %) at 10 μM” value is reported as 92%. In series [2], the activity at 10 µM was determined as 4.7%.
Taken in the same sequence, the figures for `O=C(NCc1cnc(C(=O)c2ccccc2)s1)c1ccc2c(c1)NC(=O)c1ccccc1S2(=O)=O` [compound 1929] were 93% and 1.2%.
Taken in the same sequence, the figures for `O=C1Cc2cccc(-c3ncc(CNC(=O)c4ccc5c(c4)NC(=O)c4ccccc4S5(=O)=O)s3)c2N1` [compound 1930] were 91% and 23.8%.
Taken in the same sequence, the figures for `O=C(NCc1cnc(-c2ccc(NC(=O)C3CC3)cc2)s1)c1ccc2c(c1)NC(=O)c1ccccc1S2(=O)=O` [compound 1931] were 97% and 8.5%.
For `CC(=O)Nc1ccc(-c2ncc(CNC(=O)c3ccc4c(c3)NC(=O)c3ccccc3S4(=O)=O)s2)cc1` [compound 1932], the “AD38 Viability Normalized Result (cmpd/DMSO %) at 10 μM” value in series [1] turned out to be 101%. In addition, the activity at 10 µM in series [2] was 2.2%.
Taken in the same sequence, the figures for `O=C(NCc1cnc(C(F)(F)F)s1)c1cc2c(cc1Cl)S(=O)(=O)c1ccccc1C(=O)N2` [compound 1934] were 69% and 40%.
Taken in the same sequence, the figures for `N#Cc1ccc(-c2ncc(CNC(=O)c3cc4c(cc3Cl)S(=O)(=O)c3ccccc3C(=O)N4)s2)cc1` [compound 1935] were 112% and 0.7%.
Taken in the same sequence, the figures for `O=C(NCc1cnc(C(F)(F)F)s1)c1cc2c(cc1C(F)(F)F)S(=O)(=O)c1ccccc1C(=O)N2` [compound 1936] were 94% and 13.5%.
Regarding `Cc1c(C(=O)NCc2cnc(C(F)(F)F)s2)ccc2c1NC(=O)c1ccccc1O2` [compound 1941], the “AD38 Viability Normalized Result (cmpd/DMSO %) at 10 μM” value in series [1] stood at 84%. Besides, the activity at 10 µM in series [2] came to 5.2%.
As to `Cc1c(C(=O)NCc2cnc(-c3ccc(C#N)cc3)s2)ccc2c1NC(=O)c1ccccc1O2` [compound 1942], the “AD38 Viability Normalized Result (cmpd/DMSO %) at 10 μM” value in series [1] was 106%. In series [2], the activity at 10 µM was 3%.
For `CNC(=O)c1ccc(-c2ncc(CNC(=O)c3ccc4c(c3)NC(=O)c3ccccc3S4(=O)=O)s2)cc1` [compound 1943] the same measures were 98% and 1.9%.
Taken in the same sequence, the figures for `CN(C)C(=O)c1ccc(-c2ncc(CNC(=O)c3ccc4c(c3)NC(=O)c3ccccc3S4(=O)=O)s2)cc1` [compound 1944] were 93% and 2.5%.
As for `CC(C)(C)NC(=O)c1ccc(-c2ncc(CNC(=O)c3ccc4c(c3)NC(=O)c3ccccc3S4(=O)=O)s2)cc1` [compound 1947], in series [1], the “AD38 Viability Normalized Result (cmpd/DMSO %) at 10 μM” value stood at 101%. The activity at 10 µM in series [2] stood at 2.3%.
Taken in the same sequence, the figures for `O=C(NCc1cnc(-c2ccc(C(=O)NC3CC3)cc2)s1)c1ccc2c(c1)NC(=O)c1ccccc1S2(=O)=O` [compound 1949] were 99% and 2.9%.
Taken in the same sequence, the figures for `O=C1CCc2cc(-c3ncc(CNC(=O)c4ccc5c(c4)NC(=O)c4ccccc4S5(=O)=O)s3)ccc2N1` [compound 1951] were 101% and 1.8%.
